From patent US10245264B2, “Substituted imidazo[1,2-a]pyrazines as soluble guanylate cyclase activators” (Merck Sharp & Dohme Corp., priority 2015, dated 2019)

Target: T1, sGC α1/β1 heterodimer stably expressed in CHO-K1 cells (CHO-K1/sGC) (Homo sapiens, UniProt Q02108+Q02153)
T1 construct: expressed in transfected cells
T1 sequence (Q02108 1-690): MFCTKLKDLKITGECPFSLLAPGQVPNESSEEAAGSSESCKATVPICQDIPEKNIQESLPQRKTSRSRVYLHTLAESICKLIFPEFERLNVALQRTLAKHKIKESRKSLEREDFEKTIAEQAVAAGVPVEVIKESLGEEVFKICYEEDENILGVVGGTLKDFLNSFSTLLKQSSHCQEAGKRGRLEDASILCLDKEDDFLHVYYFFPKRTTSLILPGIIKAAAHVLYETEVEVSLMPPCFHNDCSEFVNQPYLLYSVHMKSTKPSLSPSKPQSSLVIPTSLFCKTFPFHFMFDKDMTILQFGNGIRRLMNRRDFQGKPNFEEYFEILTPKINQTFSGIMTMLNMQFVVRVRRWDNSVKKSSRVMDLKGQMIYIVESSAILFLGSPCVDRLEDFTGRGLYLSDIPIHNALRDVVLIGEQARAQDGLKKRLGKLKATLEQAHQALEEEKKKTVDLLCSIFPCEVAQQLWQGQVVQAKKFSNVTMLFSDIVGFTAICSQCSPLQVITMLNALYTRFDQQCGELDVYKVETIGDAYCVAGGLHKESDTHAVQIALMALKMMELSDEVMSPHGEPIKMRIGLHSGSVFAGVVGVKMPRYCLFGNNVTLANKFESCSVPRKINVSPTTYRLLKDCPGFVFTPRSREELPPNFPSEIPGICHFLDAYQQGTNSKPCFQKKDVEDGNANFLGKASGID
T1 sequence (Q02153 1-619): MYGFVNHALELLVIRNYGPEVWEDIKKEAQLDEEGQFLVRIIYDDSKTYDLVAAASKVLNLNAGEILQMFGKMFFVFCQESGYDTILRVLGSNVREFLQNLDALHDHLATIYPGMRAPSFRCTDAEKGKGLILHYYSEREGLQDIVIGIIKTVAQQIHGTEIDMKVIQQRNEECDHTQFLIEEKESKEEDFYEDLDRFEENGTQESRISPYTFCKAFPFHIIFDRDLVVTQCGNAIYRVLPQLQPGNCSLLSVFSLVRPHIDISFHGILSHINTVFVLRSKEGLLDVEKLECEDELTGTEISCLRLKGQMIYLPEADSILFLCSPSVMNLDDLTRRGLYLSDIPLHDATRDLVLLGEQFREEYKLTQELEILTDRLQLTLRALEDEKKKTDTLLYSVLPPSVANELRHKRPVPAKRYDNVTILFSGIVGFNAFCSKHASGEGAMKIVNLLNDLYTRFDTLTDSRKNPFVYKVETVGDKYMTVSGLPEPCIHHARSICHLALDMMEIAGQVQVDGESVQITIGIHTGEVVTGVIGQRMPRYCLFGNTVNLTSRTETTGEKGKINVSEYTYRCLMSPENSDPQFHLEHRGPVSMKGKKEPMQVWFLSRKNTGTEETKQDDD
Assay: Cell-based sGC functional assay (CASA assay), cGMP generation by HTRF
Conditions: for Emax: CHO-K1, maximum cGMP production of Compound A set to 100% activation, read-out: % Act. (percent activation relative to Compound A); for EC50: CHO-K1/sGC cells, 1 hr at 37° C., 4P fit, presence or absence of DETA-NO not given, read-out: IP (nM) (inflection point)
Method in brief: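 CHO-K1/sGC cells (4×10^5/mL) in EBSS with 5 mM MgCl2, 10 mM HEPES, 0.05% BSA and 0.5 mM IBMX, treated 1 hr at 37° C with compounds (2.5% DMSO) with or without 1 μM DETA-NO. cGMP measured by HTRF, expressed as % of a reference heme-dependent activator's maximum; inflection point and fold induction from 4P fit.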

SMILES	Emax	EC50	% Act. (percent activation relative to Compound A) (maximum cGMP production of Compound A set to 100% activation)
CC1(c2ccc(F)cc2)C(=O)Nc2nc(-c3cn4ccnc4c(OCC4CCCCC4)n3)nc(N)c21 (centres unmarked) [Example 43A, 4-amino-2-[8-(cyclohexyl-methoxy)imidazo [1,2-a]pyrazin-6-yl]-5-(4-fluorophenyl)-5-methyl-5,7-dihydro-6H-pyrrolo[2,3-d] pyrimidin-6-one]	116%	17 nM	
CC1(c2ccc(Cl)cc2)C(=O)Nc2nc(-c3cn4ccnc4c(OCc4ccccc4)n3)nc(N)c21 (centres unmarked) [Example 48A, 4-amino-2-[8-(benzyloxy)imidazo[1,2-a]pyrazin-6-yl]-5-(4-chlorophenyl)-5-methyl-5,7-dihydro-6H-pyrrolo[2,3-d] pyrimidin-6-one]	106%	26 nM	
CC1(c2ccc(F)cc2)C(=O)Nc2nc(-c3cn4ccnc4c(OCCC4CC(F)(F)C4)n3)nc(N)c21 (centres unmarked) [Example 42A, 4-amino-2-{8-[2-(3,3-difluoro-cyclobutyl)ethoxy]imidazo[1,2-a]pyrazin-6-yl}-5-(4-fluorophenyl)-5-methyl-5,7-dihydro-6H-pyrrolo[2,3-d] pyrimidin-6-one]	119%	1350 nM	
CC1(c2ccc(F)cc2)C(=O)Nc2nc(-c3cn4ccnc4c(NCC4CC(F)(F)C4)n3)nc(N)c21 (centres unmarked) [Example 53A, 4-amino-2-(8-{[(3,3-difluoro-cyclobutyl)methyl]amino}imidazo[1,2-a]pyrazin-6-yl)-5-(4-fluoro-phenyl)-5-methyl-5,7-dihydro-6H-pyrrolo[2,3-d] pyrimidin-6-one]	110%	948 nM	
CC1(c2ccc(F)cc2)C(=O)Nc2nc(-c3cn4ccnc4c(Oc4cncc(C(F)(F)F)c4)n3)nc(N)c21 (centres unmarked) [Example 21A, 4-amino-5-(4-fluorophenyl)-5-methyl-2-(8-{[5-(trifluoromethyl)pyridin-3-yl]oxy}imidazo[1,2-a]pyrazin-6-yl)-5,7-dihydro-6H-pyrrolo[2,3-d] pyrimidin-6-one]	137%	1060 nM	
CCCC(C)Oc1nc(-c2nc(N)c3c(n2)NC(=O)C3(C)c2ccc(F)cc2)cn2ccnc12 (racemic) [Example 65A, 4-amino-5-(4-fluorophenyl)-5-methyl-2-[8-(1-methyl-butoxy)imidazo [1,2-a]pyrazin-6-yl]-5,7-dihydro-6H-pyrrolo[2,3-d] pyrimidin-6-one]	101%	461 nM	
COCCNc1nc(-c2nc(N)c3c(n2)NC(=O)C3(C)c2ccc(F)cc2)cn2ccnc12 (centres unmarked) [Example 52A, 4-amino-5-(4-fluorophenyl)-2-{8-[(2-methoxyethyl)amino]imidazo [1,2-a]pyrazin-6-yl}-5-methyl-5,7-dihydro-6H-pyrrolo[2,3-d] pyrimidin-6-one]	101%	244 nM	
CC1(c2ccc(Cl)cc2)C(=O)Nc2nc(-c3cn4ccnc4c(OCC4CCCCO4)n3)nc(N)c21 (single isomer, unassigned; fast eluting) [Example 68A, 4-amino-5-(4-chlorophenyl)-5-methyl-2-[8-(tetrahydro-2H-pyran-2-ylmethoxy)imidazo[1,2-a]pyrazin-6-yl]-5,7-dihydro-6H-pyrrolo [2,3-d] pyrimidin-6-one (fast eluting)]	86%	324 nM	
CC(CNc1nc(-c2nc(N)c3c(n2)NC(=O)C3(C)c2ccc(F)cc2)cn2ccnc12)C(F)(F)F (racemic) [Example 70, 4-amino-5-(4-fluorophenyl)-5-methyl-2-{8-[(3,3,3-trifluoro-2-methylpropyl)amino]imidazo [1,2-a]pyrazin-6-yl}-5,7-dihydro-6H-pyrrolo[2,3-d] pyrimidin-6-one]	89%	291 nM	
CCC1(CNc2nc(-c3nc(N)c4c(n3)NC(=O)C4(C)c3ccc(Cl)cc3)cn3ccnc23)CC1 (centres unmarked) [Example 57A, 4-amino-5-(4-chlorophenyl)-2-(8-{[(1-ethylcyclo-propyl)methyl]amino}imidazo [1,2-a]pyrazin-6-yl)-5-methyl-5,7-dihydro-6H-pyrrolo[2,3-d] pyrimidin-6-one]	123%	47 nM	
CC1(c2ccc(Cl)cc2)C(=O)Nc2nc(-c3cn4ccnc4c(NCC4CCCOC4)n3)nc(N)c21 (single isomer, unassigned; slow eluting) [Example 72B, 4-amino-5-(4-chlorophenyl)-5-methyl-2-{8-[(tetrahydro-2H-pyran-3-ylmethyl)amino]imidazo [1,2-a]pyrazin-6-yl}-5,7-dihydro-6H-pyrrolo[2,3-d] pyrimidin-6-one (slow eluting)]		412 nM	94%
CC1(c2ccc(F)cc2)C(=O)Nc2nc(-c3cn4ccnc4c(NCC4CCCCC4)n3)nc(N)c21 (centres unmarked) [Example 55A, 4-amino-2-{8-[(cyclohexyl-methyl)amino]imidazo[1,2-a]pyrazin-6-yl}-5-(4-fluoro-phenyl)-5-methyl-5,7-dihydro-6H-pyrrolo[2,3-d] pyrimidin-6-one]	92%	35 nM	
CC1(c2ccc(Cl)cc2)C(=O)Nc2nc(-c3cn4ccnc4c(NCC4CCOCC4)n3)nc(N)c21 (centres unmarked) [Example 59A, 4-amino-5-(4-chlorophenyl)-5-methyl-2-{8-[(tetrahydro-2H-pyran-4-ylmethyl)amino]imidazo [1,2-a]pyrazin-6-yl}-5,7-dihydro-6H-pyrrolo[2,3-d] pyrimidin-6-one]	167%	701 nM	
CC1(c2ccc(F)cc2)C(=O)Nc2nc(-c3cn4ccnc4c(OC4CCCCC4)n3)nc(N)c21 (centres unmarked) [Example 22A, 4-amino-2-[8-(cyclohexyloxy)imidazo[1,2-a]pyrazin-6-yl]-5-(4-fluorophenyl)-5-methyl-5,7-dihydro-6H-pyrrolo[2,3-d] pyrimidin-6-one]	107%	171 nM	
CC(Nc1nc(-c2nc(N)c3c(n2)NC(=O)C3(C)c2ccc(Cl)cc2)cn2ccnc12)c1ccccc1 (centres unmarked) [Example 73, 4-amino-5-(4-chlorophenyl)-5-methyl-2-{8-[(1-phenylethyl)amino]imidazo [1,2-a]pyrazin-6-yl}-5,7-dihydro-6H-pyrrolo[2,3-d] pyrimidin-6-one]	81%	336 nM	
CC1(c2ccc(F)cc2)C(=O)Nc2nc(-c3cn4ccnc4c(OC4CCCC4)n3)nc(N)c21 (centres unmarked) [Example 46A, 4-amino-2-[8-(cyclopentyl-oxy)imidazo [1,2-a]pyrazin-6-yl]-5-(4-fluorophenyl)-5-methyl-5,7-dihydro-6H-pyrrolo[2,3-d] pyrimidin-6-one]	108%	912 nM	
